From patent US20130102629A1, “ANALOGUES FOR THE TREATMENT OR PREVENTION OF FLAVIVIRUS INFECTIONS” (VERTEX PHARMACEUTICALS INCORPORATED, priority 2010, published 2013)
pEC50: −log10 of the molar value.

Tests used:
[1] = system: HCV (1b) replicon, Huh-ET cells; assay: Cell-based luciferase reporter HCV (1b) RNA replication assay; settings: Hepatitis C virus; for pEC50: HCV genotype 1b replicon, read-out: EC50_1b; for IC50: sub-genomic replicon 1b cell line
Source text: Cell-Based Luciferase Reporter HCV (Ib) RNA Replication Assay Cell Culture
Replicon cell lines Huh-5.2 are derived from the Huh-7 hepatocarcinoma cell line are maintained in culture as generally described in Krieger, N; Lohmann, V; Bartenschlager, R. Enhancement of hepatitis C virus RNA replication by cell culture-adaptive mutations. J. Virol. 2001, 75, 4614-4624. The Huh-5.2 cells contain the highly cell culture-adapted replicon I389luc-ubi-neo/NS3-3′/5.1 construct that carries, in addition to the neomycin gene, an integrated copy to the firefly luciferase gene (Krieger, N; Lohmann, V; Bartenschlager, R. Enhancement of hepatitis C virus RNA replication by cell culture-adaptive mutations. J. Virol. 2001, 75, 4614-4624). This cell line allows measurement of HCV RNA replication and translation by measuring luciferase activity. It has been previously shown that the luciferase activity tightly follows the replicon RNA level in these cells (Krieger, N; Lohmann, V; Bartenschlager, R. Enhancement of hepatitis C virus RNA replication by cell culture-adaptive mutations. J. Virol. 2001, 75, 4614-4624). The Huh-ET cell line has the same features as those mentioned for Huh-5.2 cell line, except that ET cells are more robust and contain an adaptative mutation in the HCV NS4B gene instead of NS5A. Both cell lines are maintained in cultures at a sub-confluent level (<85%) as the level of replicon RNA is highest in actively proliferating cells. The culture media used for cell passaging consist of DMEM (Gibco BRL Laboratories, Mississauga, ON, Canada) supplemented with 10% foetal bovine serum with 1% penicilin/streptomycin, 1% glutamine, 1% sodium pyruvate, 1% non-essential amino acids, and 180 μg/ml of G418 final concentration. Cells are incubated at 37° C., in an atmosphere of 5% CO2 and passaged twice a week to maintain sub-confluence.
Approximately 3000 viable Huh-ET cells (100 μl) are plated per well in a white opaque 96-well microtiter plate. The cell culture media used for the assay is the same as described above except that it contains no G418 and no phenol red. After an incubation period of 3-4 hours at 37° C. in a 5% CO2 incubator, compounds (100 μl) are added at various concentrations. Cells are then further incubated for 4 days at 37° C. in a 5% CO2 incubator. Thereafter, the culture media is removed and cells are lysed by the addition of 95 μL of the luciferase buffer (luciferin substrate in buffered detergent). Cell lysates are incubated at room temperature and protected from direct light for at least 10 minutes. Plates are read for luciferase counts using a luminometer (Wallac MicroBeta Trilux, Perkin Elmer™, MA, USA).
Curves are fitted to data points using nonlinear regression analysis, and IC50s are interpolated from the resulting curve using GraphPad Prism software, version 2.0 (GraphPad Software Inc., San Diego, Calif., USA).

[2] = system: sub-genomic HCV replicon of genotype 1a (cell line W11.8); assay: Activity determination using the ELISA and the sub-genomic replicon 1a cell line; assay type: cell-based; settings: Hepatitis C virus
Source text: Activity Determination Using the ELISA and the Sub-Genomic Replicon 1a Cell Line
The cell line W11.8 containing the sub-genomic HCV replicon of genotype 1a is used to determine the potency of the drugs. The RNA replication in presence of different drug concentrations is indirectly measured in this cell line by the level of NS5A protein content upon drug treatment for four days. It is shown that the level of the NS5A protein correlates well with the level of HCV RNA in the replicon cell line. Cells are split twice a week in order to keep the confluence state below 85% of the culture flask surface area. The culture media used for cell passaging consists of DMEM-10% foetal bovine serum with 100 UI/mL penicillin, 100 μg/mL streptomycin, 2 mM glutamine, 1 mM sodium pyruvate, non-essential amino acids (1×) and 600 μg/mL of G418 final concentrations. Monolayer of the W11.8 cells is trypsinized and cells are counted. […] Then, substrate solution (100 μl, SuperSignal ELISA Pico Chemiluminescent Substrate, Fisher Cat. No. 37069) is added in each well and plates are incubated 60 minutes at room temperature prior to reading the luminescence (relative light units) on the Analyst HT plate reader. The percentage of inhibition at each drug concentration tested (in duplicate) is calculated.

Compound | pEC50 [1] | IC50 [1] [nM] | IC50 [2] [nM]
COC(=O)N[C@H](C(=O)N1C[C@@H](C)C[C@H]1c1ncc(-c2ccc(-c3ccc(-c4ccc5nc([C@@H]6C[C@H](C)CN6C(=O)[C@@H](NC(=O)OC)C(C)C)oc5c4)cc3)cc2)[nH]1)C(C)C [Compound 1] | ≥ 8.30 |  | 
COC(=O)N[C@H](C(=O)N1C[C@@H](C)C[C@H]1c1cc2ccc(-c3ccc(-c4ccc(-c5cnc([C@@H]6C[C@H](C)CN6C(=O)[C@@H](NC(=O)OC)C(C)C)[nH]5)cc4)cc3)cc2[nH]1)C(C)C [Compound 2] | ≥ 8.30 |  | 
COC(=O)N[C@H](C(=O)N1C[C@@H](C)C[C@H]1c1ncc(-c2ccc(-c3ccc(-c4ccc5sc([C@@H]6C[C@H](C)CN6C(=O)[C@@H](NC(=O)OC)C(C)C)nc5c4)cc3)cc2)[nH]1)C(C)C [Compound 3] | ≥ 8.30 |  | 
COC(=O)N[C@H](C(=O)N1[C@@H](C)CC[C@H]1c1nc(-c2ccc(-c3ccc(-c4cnc5[nH]c([C@@H]6CC[C@H](C)N6C(=O)[C@@H](NC(=O)OC)C(C)C)nc5c4)cc3)cc2)c[nH]1)C(C)C [Compound 4] | ≥ 8.30 | 0.07 | 0.025
COC(=O)N[C@H](C(=O)N1C[C@@H](C)C[C@H]1c1cc2cc(-c3ccc(-c4ccc(-c5cnc([C@@H]6C[C@H](C)CN6C(=O)[C@@H](NC(=O)OC)C(C)C)[nH]5)cc4)cc3)ccc2[nH]1)C(C)C [Compound 5] | ≥ 8.30 |  | 
COC(=O)N[C@H](C(=O)N1C(c2nc3cc(-c4ccc(-c5ccc(-c6c[nH]c([C@@H]7CC[C@H](C)N7C(=O)[C@@H](NC(=O)OC)C(C)C)n6)cc5)cc4)cnc3[nH]2)CC[C@@H]1C)C(C)C (stereo partly drawn) [Compound 6] | ≥ 8.30 |  | 
COC(=O)N[C@H](C(=O)N1C[C@@H](C)C[C@H]1c1nc2ccc(-c3cc4sc(-c5c[nH]c([C@@H]6C[C@H](C)CN6C(=O)[C@@H](NC(=O)OC)C(C)C)n5)cc4s3)cn2n1)C(C)C [Compound 15] | ≥ 8.30 |  | 
COC(=O)N[C@H](C(=O)N1C[C@@H](C)C[C@H]1c1nc(-c2ccc(-c3ccc(-c4cnc5[nH]c([C@@H]6C[C@H](C)CN6C(=O)[C@@H](NC(=O)OC)C(C)C)nc5c4)cc3)cc2)c[nH]1)C(C)C [Compound 16, Methyl N-[(1S)-1-[(2S,4S)-2-[4-[4-[4-[2-[(2S,4S)-1-[(2S)-2-(methoxycarbonylamino)-3-methyl-butanoyl]-4-methyl-pyrrolidin-2-yl]-3H-imidazo[4,5-b]pyridin-6-yl]phenyl]phenyl]-1H-imidazol-2-yl]-4-methyl-pyrrolidine-1-carbonyl]-2-methyl-propyl]carbamate] | ≥ 8.30 | 0.01 | 0.01
